Laboratory results as given in EP0280610B1, “Dipeptides, preparation process and use in dosing proteases” (SERBIO, priority 1987, dated 1992).

How the values were obtained:
[1] = system: plasmine humaine; test: Hydrolysis rate of chromogenic substrates by human plasmin (pNA release, OD at 405 nm); type: biochemical; conditions: compared with reference product A3; underlying results expressed in ΔOD/minute at 405 nm, TEA buffer pH 8,4
Source text: (§1) L'activité des dipeptides suivant l'invention et des tripeptides consignés dans le tableau I a été étudiée sur la thrombine humaine, la plasmine humaine, le Facteur Xa humaine et la Protéine C bovine, les tripeptides A1-A4 étant les substrats de référence du commerce. La libération du marquer HR₁ (i.e. amine H₂NRʹ₁), qui est objectivée par la variation de OD pendant l'hydrolyse enzymatique des substrats, sert d'outil de comparaison.
(§2) La lecture de OD est en général effectuée à 300-470 nm, et plus précisément à 405 nm quand R₁ est pNA, pendant environ 5 minutes.
(§3) Les essais ont été réalisés sur appareil GILFORD 203 S pour automatiser la lecture des échantillons et standardiser leur traitement.
(§4) On prépare des solutions dans du sérum physiologique renfermant chacune un enzyme : thrombine humaine 3 UNIH/ml Facteur Xa humain 3,7 nkat/ml plasmine humaine 2,3 nkat/ml protéine C bovine activée 10µg/ml
(§5) On dissout chaque peptide à tester dans le l'eau à une concentration de 10 mg/ml.
(§6) 400 µl d'enzyme dilué au 1/2 dans du tampon TEA (pH 8,4) sont ajoutés à 200 µl de chacun des différents peptides à tester. On détermine les vitesses d'hydrolyse desdits substrats en suivant l'évolution de la libération de pNA. Cette évolution peut être suivie par la lecture de la varition de OD par unité de temps (ΔOD/minute) à 405 nm.

[2] = system: Protéine C bovine; test: Hydrolysis rate of chromogenic substrates by activated bovine protein C (pNA release, OD at 405 nm); type: biochemical; conditions: compared with reference product A4; underlying results expressed in ΔOD/minute at 405 nm, TEA buffer pH 8,4
Source text: as §1, §2, §3, §4, §5, §6

MM-L-4Hyp-L-Arg-pNA, H-TFA [EX 10]
sensibilité à la plasmine [1]: plus sensible à la plasmine que le produit de référence A3 | sensibilité à la protéine C [2]: plus sensibles à la protéine C que le produit de référence A4
